Measurements: ChEMBL document CHEMBL2396653, “Synthesis and antimycobacterial evaluation of N-substituted 5-chloropyrazine-2-carboxamides” (Bioorg Med Chem Lett, 2013)
Active and inactive are the calls of the source.

Key:
[1] = tested on: Mycobacterium tuberculosis; experiment: Antimycobacterial activity against pyrazinamide-susceptible Mycobacterium tuberculosis ATCC 35801 assessed as growth inhibition after 24 hrs to 2 weeks by microbroth dilution method; assay type: functional
[2] = tested on: Mycolicibacterium fortuitum; experiment: Antimycobacterial activity against pyrazinamide-resistant Mycobacterium fortuitum ATCC 49403 assessed as growth inhibition after 24 hrs to 2 weeks by microbroth dilution method; assay type: functional
[3] = tested on: Mycobacterium tuberculosis; experiment: Antimycobacterial activity against pyrazinamide-susceptible Mycobacterium tuberculosis ATCC 27294 assessed as growth inhibition after 24 hrs to 2 weeks by microbroth dilution method; assay type: functional
[4] = tested on: Mycolicibacterium fortuitum; experiment: Antimycobacterial activity against pyrazinamide-resistant Mycobacterium fortuitum ATCC 49601 assessed as growth inhibition after 24 hrs to 2 weeks by microbroth dilution method; assay type: functional
Mycobacterium kansasii [5] = experiment: Antimycobacterial activity against pyrazinamide-resistant Mycobacterium kansasii assessed as growth inhibition after 24 hrs to 2 weeks by microbroth dilution method; assay type: functional
Mycobacterium avium [6] = experiment: Antimycobacterial activity against Mycobacterium avium CNCTC My 80/72 assessed as growth inhibition after 14 days by microdilution method; assay type: functional; conditions: CNCTC My 80/72, 336 h
Pichia kudriavzevii = experiment: Antifungal activity against Candida krusei E28 assessed as growth inhibition after 24 to 48 hrs by microbroth dilution method; assay type: functional, organism-based
Staphylococcus aureus [7] = experiment: Antibacterial activity against methicillin-resistant Staphylococcus aureus H 5996/08 clinical isolate assessed as growth inhibition after 24 to 48 hrs by microbroth dilution method; assay type: functional, organism-based
Klebsiella pneumoniae [8] = experiment: Antibacterial activity against Klebsiella pneumoniae D 11750/08 clinical isolate assessed as growth inhibition after 24 to 48 hrs by microbroth dilution method; assay type: functional, organism-based
[9] = tested on: Trichophyton mentagrophytes; experiment: Antifungal activity against Trichophyton mentagrophytes 445 assessed as growth inhibition after 72 to 120 hrs by microbroth dilution method; assay type: functional, organism-based
[10] = tested on: Mycobacterium tuberculosis; experiment: Antimycobacterial activity against Mycobacterium tuberculosis H37Rv assessed as growth inhibition after 14 days by microdilution method; assay type: functional; conditions: 336 h
Escherichia coli = experiment: Antibacterial activity against Escherichia coli CCM 4517 assessed as growth inhibition after 24 to 48 hrs by microbroth dilution method; assay type: functional, organism-based
[11] = tested on: Staphylococcus epidermidis; experiment: Antibacterial activity against Staphylococcus epidermidis H 6966/08 clinical isolate assessed as growth inhibition after 24 to 48 hrs by microbroth dilution method; assay type: functional, organism-based
Candida tropicalis = experiment: Antifungal activity against Candida tropicalis 156 assessed as growth inhibition after 24 to 48 hrs by microbroth dilution method; assay type: functional, organism-based
Lichtheimia corymbifera = experiment: Antifungal activity against Absidia corymbifera 272 assessed as growth inhibition after 24 to 48 hrs by microbroth dilution method; assay type: functional, organism-based
Candida albicans = experiment: Antifungal activity against Candida albicans ATCC 44859 assessed as growth inhibition after 24 to 48 hrs by microbroth dilution method; assay type: functional, organism-based
[12] = tested on: Mycobacterium tuberculosis; experiment: Ratio of pyrazinamide MIC to compound MIC for Mycobacterium tuberculosis H37Rv; assay type: functional
Mycobacterium avium [13] = experiment: Antimycobacterial activity against Mycobacterium avium CNCTC My 152/73 assessed as growth inhibition after 14 days by microdilution method; assay type: functional; conditions: CNCTC My 152/73, 336 h
[14] = Stability of the compound at pH 7; assay type: physicochemical; conditions: buffer
Nakaseomyces glabratus = experiment: Antifungal activity against Candida glabrata 20/I assessed as growth inhibition after 24 to 48 hrs by microbroth dilution method; assay type: functional, organism-based
Aspergillus fumigatus = experiment: Antifungal activity against Aspergillus fumigatus 231 assessed as growth inhibition after 24 to 48 hrs by microbroth dilution method; assay type: functional, organism-based
[15] = Lipophilicity, log K of the compound by HPLC analysis; assay type: physicochemical
Trichosporon asahii = experiment: Antifungal activity against Trichosporon asahii 1188 assessed as growth inhibition after 24 to 48 hrs by microbroth dilution method; assay type: functional, organism-based
Enterococcus = experiment: Antibacterial activity against Enterococcus sp. J 14365/08 clinical isolate assessed as growth inhibition after 24 to 48 hrs by microbroth dilution method; assay type: functional, organism-based
Staphylococcus aureus [16] = experiment: Antibacterial activity against Staphylococcus aureus CCM 4516/08 assessed as growth inhibition after 24 to 48 hrs by microbroth dilution method; assay type: functional, organism-based
Klebsiella pneumoniae [17] = experiment: Antibacterial activity against ESBL-positive Klebsiella pneumoniae J 14368/08 clinical isolate assessed as growth inhibition after 24 to 48 hrs by microbroth dilution method; assay type: functional, organism-based
Mycobacterium kansasii [18] = experiment: Antimycobacterial activity against Mycobacterium kansasii CNCTC My 235/80 assessed as growth inhibition after 14 days by microdilution method; assay type: functional; conditions: CNCTC My 235/80, 336 h
Pseudomonas aeruginosa = experiment: Antibacterial activity against Pseudomonas aeruginosa CCM 1961 assessed as growth inhibition after 24 to 48 hrs by microbroth dilution method; assay type: functional, organism-based

NC(=O)c1cnc(Cl)cn1
8 µg/mL: MIC [2] | MIC [4] | MIC (Mycobacterium kansasii [5])
16 µg/mL: MIC [1] | MIC [3]

O=C(NCc1ccc(Cl)cc1Cl)c1cnc(Cl)cn1
0.727: log K [15]
Stable: Stability [14]
3: Ratio [12]
inactive: growth inhibition (GI) (Pichia kudriavzevii) | growth inhibition (GI) (Staphylococcus aureus [7]) | growth inhibition (GI) (Klebsiella pneumoniae [8]) | growth inhibition (GI) [9] | growth inhibition (GI) (Escherichia coli) | growth inhibition (GI) [11] | growth inhibition (GI) (Candida tropicalis) | growth inhibition (GI) (Lichtheimia corymbifera) | growth inhibition (GI) (Candida albicans) | growth inhibition (GI) (Nakaseomyces glabratus) | growth inhibition (GI) (Aspergillus fumigatus) | growth inhibition (GI) (Trichosporon asahii) | growth inhibition (GI) (Enterococcus) | growth inhibition (GI) (Staphylococcus aureus [16]) | growth inhibition (GI) (Klebsiella pneumoniae [17]) | growth inhibition (GI) (Pseudomonas aeruginosa)
> 100 µg/mL: MIC (Mycobacterium avium [6]) | MIC (Mycobacterium avium [13]) | MIC (Mycobacterium kansasii [18])
12.5 µg/mL: MIC [10]

O=C(NCc1cccc(Cl)c1)c1cnc(Cl)cn1
inactive: growth inhibition (GI) (Pichia kudriavzevii) | growth inhibition (GI) (Staphylococcus aureus [7]) | growth inhibition (GI) (Klebsiella pneumoniae [8]) | growth inhibition (GI) [9] | growth inhibition (GI) (Escherichia coli) | growth inhibition (GI) [11] | growth inhibition (GI) (Candida tropicalis) | growth inhibition (GI) (Lichtheimia corymbifera) | growth inhibition (GI) (Candida albicans) | growth inhibition (GI) (Nakaseomyces glabratus) | growth inhibition (GI) (Aspergillus fumigatus) | growth inhibition (GI) (Trichosporon asahii) | growth inhibition (GI) (Enterococcus) | growth inhibition (GI) (Staphylococcus aureus [16]) | growth inhibition (GI) (Klebsiella pneumoniae [17]) | growth inhibition (GI) (Pseudomonas aeruginosa)
> 100 µg/mL: MIC (Mycobacterium avium [6]) | MIC (Mycobacterium avium [13])
25 µg/mL: MIC [10]
0.4229: log K [15]
50 µg/mL: MIC (Mycobacterium kansasii [18])
Stable: Stability [14]

O=C(Nc1ccc(Br)cc1)c1cnc(Cl)cn1
Stable: Stability [14]
6.25 µg/mL: MIC (Mycobacterium kansasii [18])
3.13 µg/mL: MIC [10]
> 100 µg/mL: MIC (Mycobacterium avium [6]) | MIC (Mycobacterium avium [13])
0.6601: log K [15]
inactive: growth inhibition (GI) (Pichia kudriavzevii) | growth inhibition (GI) (Staphylococcus aureus [7]) | growth inhibition (GI) (Klebsiella pneumoniae [8]) | growth inhibition (GI) [9] | growth inhibition (GI) (Escherichia coli) | growth inhibition (GI) [11] | growth inhibition (GI) (Candida tropicalis) | growth inhibition (GI) (Lichtheimia corymbifera) | growth inhibition (GI) (Candida albicans) | growth inhibition (GI) (Nakaseomyces glabratus) | growth inhibition (GI) (Aspergillus fumigatus) | growth inhibition (GI) (Trichosporon asahii) | growth inhibition (GI) (Enterococcus) | growth inhibition (GI) (Staphylococcus aureus [16]) | growth inhibition (GI) (Klebsiella pneumoniae [17]) | growth inhibition (GI) (Pseudomonas aeruginosa)

O=C(Nc1ccccc1F)c1cnc(Cl)cn1
0.4903: log K [15]
6.25 µg/mL: MIC [10]
> 100 µg/mL: MIC (Mycobacterium avium [6]) | MIC (Mycobacterium avium [13])
12.5 µg/mL: MIC (Mycobacterium kansasii [18])
inactive: growth inhibition (GI) (Pichia kudriavzevii) | growth inhibition (GI) (Staphylococcus aureus [7]) | growth inhibition (GI) (Klebsiella pneumoniae [8]) | growth inhibition (GI) [9] | growth inhibition (GI) (Escherichia coli) | growth inhibition (GI) [11] | growth inhibition (GI) (Candida tropicalis) | growth inhibition (GI) (Lichtheimia corymbifera) | growth inhibition (GI) (Candida albicans) | growth inhibition (GI) (Nakaseomyces glabratus) | growth inhibition (GI) (Aspergillus fumigatus) | growth inhibition (GI) (Trichosporon asahii) | growth inhibition (GI) (Enterococcus) | growth inhibition (GI) (Staphylococcus aureus [16]) | growth inhibition (GI) (Klebsiella pneumoniae [17]) | growth inhibition (GI) (Pseudomonas aeruginosa)
Stable: Stability [14]

O=C(NCc1ccccc1F)c1cnc(Cl)cn1
> 100 µg/mL: MIC (Mycobacterium avium [6]) | MIC (Mycobacterium avium [13])
Stable: Stability [14]
inactive: growth inhibition (GI) (Pichia kudriavzevii) | growth inhibition (GI) (Staphylococcus aureus [7]) | growth inhibition (GI) (Klebsiella pneumoniae [8]) | growth inhibition (GI) [9] | growth inhibition (GI) (Escherichia coli) | growth inhibition (GI) [11] | growth inhibition (GI) (Candida tropicalis) | growth inhibition (GI) (Lichtheimia corymbifera) | growth inhibition (GI) (Candida albicans) | growth inhibition (GI) (Nakaseomyces glabratus) | growth inhibition (GI) (Aspergillus fumigatus) | growth inhibition (GI) (Trichosporon asahii) | growth inhibition (GI) (Enterococcus) | growth inhibition (GI) (Staphylococcus aureus [16]) | growth inhibition (GI) (Klebsiella pneumoniae [17]) | growth inhibition (GI) (Pseudomonas aeruginosa)
50 µg/mL: MIC (Mycobacterium kansasii [18])
0.3395: log K [15]
25 µg/mL: MIC [10]

Cc1ccc(CNC(=O)c2cnc(Cl)cn2)cc1
25 µg/mL: MIC [10]
> 100 µg/mL: MIC (Mycobacterium avium [6]) | MIC (Mycobacterium avium [13])
3.13 µg/mL: MIC (Mycobacterium kansasii [18])
Stable: Stability [14]
inactive: growth inhibition (GI) (Pichia kudriavzevii) | growth inhibition (GI) (Staphylococcus aureus [7]) | growth inhibition (GI) (Klebsiella pneumoniae [8]) | growth inhibition (GI) [9] | growth inhibition (GI) (Escherichia coli) | growth inhibition (GI) [11] | growth inhibition (GI) (Candida tropicalis) | growth inhibition (GI) (Lichtheimia corymbifera) | growth inhibition (GI) (Candida albicans) | growth inhibition (GI) (Nakaseomyces glabratus) | growth inhibition (GI) (Aspergillus fumigatus) | growth inhibition (GI) (Trichosporon asahii) | growth inhibition (GI) (Enterococcus) | growth inhibition (GI) (Staphylococcus aureus [16]) | growth inhibition (GI) (Klebsiella pneumoniae [17]) | growth inhibition (GI) (Pseudomonas aeruginosa)
0.4199: log K [15]

O=C(NCc1ccc(Br)cc1)c1cnc(Cl)cn1
50 µg/mL: MIC (Mycobacterium kansasii [18])
0.4981: log K [15]
3: Ratio [12]
12.5 µg/mL: MIC [10]
Stable: Stability [14]
inactive: growth inhibition (GI) (Pichia kudriavzevii) | growth inhibition (GI) (Staphylococcus aureus [7]) | growth inhibition (GI) (Klebsiella pneumoniae [8]) | growth inhibition (GI) [9] | growth inhibition (GI) (Escherichia coli) | growth inhibition (GI) [11] | growth inhibition (GI) (Candida tropicalis) | growth inhibition (GI) (Lichtheimia corymbifera) | growth inhibition (GI) (Candida albicans) | growth inhibition (GI) (Nakaseomyces glabratus) | growth inhibition (GI) (Aspergillus fumigatus) | growth inhibition (GI) (Trichosporon asahii) | growth inhibition (GI) (Enterococcus) | growth inhibition (GI) (Staphylococcus aureus [16]) | growth inhibition (GI) (Klebsiella pneumoniae [17]) | growth inhibition (GI) (Pseudomonas aeruginosa)
> 100 µg/mL: MIC (Mycobacterium avium [6]) | MIC (Mycobacterium avium [13])
